Test results: ChEMBL document CHEMBL5291721, “A preclinical secondary pharmacology resource illuminates target-adverse drug reaction associations of marketed drugs” (Nat Commun, 2023)

Experiments:
Adenosine receptor A1 = biological target: T1, Adenosine receptor A1 (Homo sapiens, UniProt P30542)
T1 sequence (P30542 whole entry): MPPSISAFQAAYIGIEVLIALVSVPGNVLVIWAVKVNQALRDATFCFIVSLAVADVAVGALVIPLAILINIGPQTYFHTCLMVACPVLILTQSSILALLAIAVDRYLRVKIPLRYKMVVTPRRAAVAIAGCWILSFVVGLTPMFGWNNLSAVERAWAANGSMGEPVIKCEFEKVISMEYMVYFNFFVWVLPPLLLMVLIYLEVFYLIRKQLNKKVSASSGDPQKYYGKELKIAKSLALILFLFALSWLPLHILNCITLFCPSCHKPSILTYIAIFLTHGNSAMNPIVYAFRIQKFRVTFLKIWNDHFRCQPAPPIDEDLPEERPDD

[1] = biological target: Gamma-aminobutyric acid receptor subunit alpha-1 (Rattus norvegicus, UniProt P62813)
Chain of Gamma-aminobutyric acid receptor subunit alpha-1 (P62813 whole entry): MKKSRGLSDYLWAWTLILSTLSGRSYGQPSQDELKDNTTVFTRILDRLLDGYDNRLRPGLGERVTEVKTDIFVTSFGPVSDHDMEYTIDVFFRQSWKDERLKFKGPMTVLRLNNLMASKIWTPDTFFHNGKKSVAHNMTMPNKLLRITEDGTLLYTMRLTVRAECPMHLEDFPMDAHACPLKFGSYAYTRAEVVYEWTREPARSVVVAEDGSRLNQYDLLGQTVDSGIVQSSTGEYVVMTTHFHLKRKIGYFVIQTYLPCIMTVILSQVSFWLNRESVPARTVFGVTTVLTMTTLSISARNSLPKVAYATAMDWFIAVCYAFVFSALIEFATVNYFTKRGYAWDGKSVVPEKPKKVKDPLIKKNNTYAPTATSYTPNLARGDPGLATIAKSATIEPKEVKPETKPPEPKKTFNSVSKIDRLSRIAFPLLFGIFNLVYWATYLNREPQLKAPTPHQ

B2 bradykinin receptor = biological target: T2, B2 bradykinin receptor (Homo sapiens, UniProt P30411)
T2 sequence (P30411 whole entry): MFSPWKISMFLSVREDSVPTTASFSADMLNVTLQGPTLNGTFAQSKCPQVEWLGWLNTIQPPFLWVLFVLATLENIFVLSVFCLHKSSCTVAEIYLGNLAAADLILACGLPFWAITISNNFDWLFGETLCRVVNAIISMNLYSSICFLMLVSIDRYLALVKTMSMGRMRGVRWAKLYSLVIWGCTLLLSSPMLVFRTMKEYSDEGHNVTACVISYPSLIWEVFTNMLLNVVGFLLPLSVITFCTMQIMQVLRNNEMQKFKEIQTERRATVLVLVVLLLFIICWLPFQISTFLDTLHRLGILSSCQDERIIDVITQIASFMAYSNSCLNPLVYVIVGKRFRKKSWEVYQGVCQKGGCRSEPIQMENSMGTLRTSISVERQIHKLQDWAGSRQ

Glucocorticoid receptor = biological target: T3, Glucocorticoid receptor (Homo sapiens, UniProt P04150)
T3 sequence (P04150 whole entry): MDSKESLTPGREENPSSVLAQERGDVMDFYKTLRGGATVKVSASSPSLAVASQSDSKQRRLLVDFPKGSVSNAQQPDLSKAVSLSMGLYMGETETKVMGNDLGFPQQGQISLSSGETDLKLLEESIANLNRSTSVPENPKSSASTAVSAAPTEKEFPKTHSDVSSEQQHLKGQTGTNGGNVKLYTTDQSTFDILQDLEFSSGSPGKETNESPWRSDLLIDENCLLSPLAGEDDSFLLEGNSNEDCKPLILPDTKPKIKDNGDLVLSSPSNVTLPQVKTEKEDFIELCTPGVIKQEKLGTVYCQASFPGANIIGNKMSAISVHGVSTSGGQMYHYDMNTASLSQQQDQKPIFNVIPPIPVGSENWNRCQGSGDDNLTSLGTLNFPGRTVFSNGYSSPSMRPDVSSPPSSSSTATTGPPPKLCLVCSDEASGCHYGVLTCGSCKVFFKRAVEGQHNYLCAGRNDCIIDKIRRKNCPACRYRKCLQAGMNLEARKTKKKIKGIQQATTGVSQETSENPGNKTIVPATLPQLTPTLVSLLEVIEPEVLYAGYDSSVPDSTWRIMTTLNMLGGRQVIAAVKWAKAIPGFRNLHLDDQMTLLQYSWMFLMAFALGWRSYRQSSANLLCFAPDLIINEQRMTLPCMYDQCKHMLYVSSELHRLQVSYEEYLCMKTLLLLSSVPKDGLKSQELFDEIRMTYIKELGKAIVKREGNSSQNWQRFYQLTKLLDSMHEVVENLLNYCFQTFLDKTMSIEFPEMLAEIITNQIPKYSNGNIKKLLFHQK

Melanocortin receptor 3 = Melanocortin receptor 3 (Homo sapiens, UniProt P41968)
Chain of Melanocortin receptor 3 (P41968 whole entry): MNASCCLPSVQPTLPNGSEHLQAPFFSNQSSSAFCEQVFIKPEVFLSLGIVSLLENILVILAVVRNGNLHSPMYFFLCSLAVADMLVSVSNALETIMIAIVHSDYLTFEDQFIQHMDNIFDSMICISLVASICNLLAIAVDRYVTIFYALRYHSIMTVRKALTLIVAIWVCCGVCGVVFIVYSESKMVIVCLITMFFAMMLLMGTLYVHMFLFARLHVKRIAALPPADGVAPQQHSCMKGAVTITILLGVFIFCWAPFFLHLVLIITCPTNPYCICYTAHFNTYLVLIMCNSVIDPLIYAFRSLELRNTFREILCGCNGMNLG

D(3) dopamine receptor = D(3) dopamine receptor (Homo sapiens, UniProt P35462)
Chain of D(3) dopamine receptor (P35462 whole entry): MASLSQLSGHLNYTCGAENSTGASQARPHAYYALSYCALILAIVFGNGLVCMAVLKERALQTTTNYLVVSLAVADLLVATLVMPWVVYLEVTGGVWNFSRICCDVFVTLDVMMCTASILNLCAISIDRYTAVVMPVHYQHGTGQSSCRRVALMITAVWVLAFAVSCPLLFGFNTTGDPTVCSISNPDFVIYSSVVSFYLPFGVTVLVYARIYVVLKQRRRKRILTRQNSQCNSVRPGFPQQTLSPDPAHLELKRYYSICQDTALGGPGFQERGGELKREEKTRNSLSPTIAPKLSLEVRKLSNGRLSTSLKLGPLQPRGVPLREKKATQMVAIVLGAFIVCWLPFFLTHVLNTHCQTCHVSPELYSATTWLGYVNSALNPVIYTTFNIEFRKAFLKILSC
Also: assay procedure not described here.

| Structure (SMILES) | AC50 (Adenosine receptor A1) | AC50 [1] | AC50 (B2 bradykinin receptor) | AC50 (Glucocorticoid receptor) | AC50 (Melanocortin receptor 3) | AC50 (D(3) dopamine receptor) |
| --- | --- | --- | --- | --- | --- | --- |
| C[N+]1(C)CCC(=C(c2ccccc2)c2ccccc2)CC1 | > 30 µM | > 10 µM | > 30 µM | > 10 µM | > 30 µM | > 30 µM |
| C[N+](C)(C)CCOP(=O)([O-])OC[C@H](O)CO | > 30 µM | > 30 µM | > 30 µM | > 30 µM | > 30 µM | > 30 µM |
| CN(C)Cc1nnc2n1-c1ccc(Cl)cc1C(c1ccccc1)=NC2 [ADINAZOLAM] | > 10 µM | > 10 µM | > 10 µM | > 10 µM | > 10 µM | > 30 µM |
| CN(C)C/C=C/C(=O)Nc1cc2c(Nc3ccc(F)c(Cl)c3)ncnc2cc1O[C@H]1CCOC1 [AFATINIB] | > 30 µM | > 30 µM | > 30 µM | > 30 µM | 28 µM | > 30 µM |
| Cc1ccccc1-n1c(CF)nc2ccc(N)cc2c1=O [AFLOQUALONE] | > 30 µM | > 10 µM | > 30 µM | – | > 30 µM | > 30 µM |
| CCC1(c2ccc(N)cc2)CCC(=O)NC1=O (stereo not given) [AMINOGLUTETHIMIDE] | > 30 µM | > 30 µM | > 30 µM | > 30 µM | > 30 µM | > 30 µM |
| CC1=C(C(=O)OC(C)C)C(c2cccc([N+](=O)[O-])c2)C(C(=O)OC2CN(C(c3ccccc3)c3ccccc3)C2)=C(N)N1 (stereo not given) [AZELNIDIPINE] | > 30 µM | > 30 µM | > 10 µM | > 30 µM | > 30 µM | > 30 µM |
| CC(Cc1cccc(C(F)(F)F)c1)NCCOC(=O)c1ccccc1 (stereo not given) [BENFLUOREX] | > 30 µM | – | > 30 µM | > 30 µM | > 30 µM | 2.63 µM |
| CCOC(=O)c1ccc(N)cc1 [BENZOCAINE] | > 10 µM | > 10 µM | > 10 µM | > 10 µM | > 10 µM | > 30 µM |
| CC(C)(Oc1ccc(CCNC(=O)c2ccc(Cl)cc2)cc1)C(=O)O [BEZAFIBRATE] | > 10 µM | > 10 µM | > 10 µM | > 10 µM | > 10 µM | > 30 µM |
| C/C=C(/C(=C/C)c1ccc(O)cc1)c1ccc(O)cc1 [DIENESTROL] | > 30 µM | > 10 µM | > 10 µM | 0.736 µM | > 10 µM | > 30 µM |
| CN[C@]1(c2ccccc2Cl)CCCCC1=O [ESKETAMINE] | > 30 µM | > 30 µM | > 30 µM | > 30 µM | > 30 µM | > 30 µM |
| COc1ccc([C@@H]2CC(=O)c3c(O)cc(O)cc3O2)cc1O [HESPERETIN] | > 10 µM | > 10 µM | > 10 µM | > 10 µM | > 10 µM | > 30 µM |
| CNCCc1ccc(OC(=O)C(C)C)c(OC(=O)C(C)C)c1 [IBOPAMINE] | > 30 µM | > 30 µM | > 30 µM | > 30 µM | > 30 µM | 0.767 µM |
| CN(C)CCCN1c2ccccc2CCc2ccccc21 [IMIPRAMINE] | > 30 µM | > 10 µM | > 30 µM | > 30 µM | 18.8 µM | 0.41 µM |
| CCOC(=O)C1=C(C)NC(C)=C(C(=O)OCC)C1c1ccccc1/C=C/C(=O)OC(C)(C)C [LACIDIPINE] | > 30 µM | > 30 µM | > 30 µM | > 30 µM | > 30 µM | > 30 µM |
| CCC[C@@H]1C[C@@H](C(=O)N[C@@H]([C@H]2O[C@H](SC)[C@H](O)[C@@H](O)[C@H]2O)[C@@H](C)O)N(C)C1 [LINCOMYCIN] | > 10 µM | > 10 µM | > 10 µM | > 10 µM | > 10 µM | > 30 µM |

| Structure (SMILES) | AC50 (Adenosine receptor A1) | AC50 [1] | AC50 (B2 bradykinin receptor) | AC50 (Glucocorticoid receptor) | AC50 (Melanocortin receptor 3) | AC50 (D(3) dopamine receptor) |
| --- | --- | --- | --- | --- | --- | --- |
| COC(=O)C1=C(C)NC(C)=C(C(=O)OCCN2CCN(C(c3ccccc3)c3ccccc3)CC2)C1c1cccc([N+](=O)[O-])c1 (stereo not given) [MANIDIPINE 6300] | > 30 µM | > 30 µM | > 30 µM | > 30 µM | > 30 µM | 6.3 µM |
| C=C1c2cccc(O)c2C(=O)C2=C(O)[C@]3(O)C(=O)C(C(N)=O)=C(O)[C@@H](N(C)C)[C@@H]3[C@@H](O)[C@H]12 [METHACYCLINE] | > 30 µM | > 10 µM | > 30 µM | > 30 µM | > 30 µM | > 30 µM |
| CN(Cc1cnc2nc(N)nc(N)c2n1)c1ccc(C(=O)N[C@@H](CCC(=O)O)C(=O)O)cc1 [METHOTREXATE] | > 30 µM | > 10 µM | > 30 µM | – | > 30 µM | > 30 µM |
| Cc1ccccc1N1C(=O)c2cc(S(N)(=O)=O)c(Cl)cc2NC1C (stereo not given) [METOLAZONE] | > 10 µM | > 10 µM | > 10 µM | > 10 µM | > 10 µM | > 30 µM |
| O=C(O)c1cccnc1Nc1cccc(C(F)(F)F)c1 [NIFLUMIC ACID] | > 10 µM | > 10 µM | > 10 µM | > 10 µM | > 10 µM | > 30 µM |
| O=C1c2cccc3c2[C@H](CCC3)CN1[C@@H]1CN2CCC1CC2 [PALONOSETRON] | > 30 µM | > 30 µM | > 30 µM | > 30 µM | > 30 µM | 29 µM |
| OC[C@H]1O[C@@H](n2cnc3c2NC=NC[C@H]3O)C[C@@H]1O [PENTOSTATIN] | 0.41 µM | > 30 µM | > 30 µM | > 30 µM | > 30 µM | > 30 µM |
| O=C1c2ccccc2C(=O)C1c1ccccc1 [PHENINDIONE] | > 10 µM | > 10 µM | > 10 µM | > 10 µM | > 10 µM | > 30 µM |
| Cc1cccc(C)c1NC(=O)CC12CCCN1CCC2 [PILSICAINIDE] | > 30 µM | > 30 µM | > 30 µM | > 30 µM | > 30 µM | > 30 µM |
| CC(C)c1cccc(C(C)C)c1O [PROPOFOL] | > 30 µM | – | – | – | > 30 µM | > 30 µM |
| CN[C@@H](C)[C@@H](O)c1ccccc1 [PSEUDOEPHEDRINE] | > 30 µM | > 10 µM | > 30 µM | > 30 µM | > 30 µM | > 10 µM |
| CCCN1CC(NS(=O)(=O)N(CC)CC)CC2Cc3c(O)cccc3CC21 (stereo not given) [QUINAGOLIDE] | > 30 µM | > 30 µM | > 30 µM | > 30 µM | > 30 µM | 0.0028 µM |
| C[C@]12CCC(=O)C[C@@H]1CC[C@@H]1[C@@H]2CC[C@]2(C)[C@@H](O)CC[C@@H]12 [STANOLONE] | > 30 µM | > 30 µM | > 30 µM | – | > 30 µM | > 30 µM |
| O=C1OC(OC(=O)c2cccnc2Nc2cccc(C(F)(F)F)c2)c2ccccc21 (stereo not given) [TALNIFLUMATE] | > 30 µM | > 30 µM | > 30 µM | > 30 µM | > 30 µM | > 30 µM |
| C[C@]12C=CC(=O)C=C1CC[C@@H]1[C@@H]2CC[C@]2(C)OC(=O)CC[C@@H]12 [TESTOLACTONE] | > 10 µM | > 10 µM | > 10 µM | – | > 10 µM | > 30 µM |
| CCOC(=O)c1c(CSc2ccccc2)n(C)c2cc(Br)c(O)c(CN(C)C)c12 [UMIFENOVIR] | > 30 µM | > 30 µM | > 30 µM | > 30 µM | > 30 µM | 6.8 µM |
